This is an account of results in publication PMC8286840, “Identifying SARS-CoV-2 antiviral compounds by screening for small molecule inhibitors of Nsp3 papain-like protease” (Biochemical Journal, 2021).

The target in assay [1] is T1, SARS-CoV-2 PLpro (nsp3 1564–1878) (Severe acute respiratory syndrome coronavirus 2, UniProt P0DTD1). Kind of assay: biochemical. On the set-up: FRET-quenched peptide (Pro3) cleavage by PLpro, 10 min pre-incubation, slope over 20 min, normalised to no-compound control. As to conditions: read-out: % of control remaining.
The target in assay [2] is T1, SARS-CoV-2 PLpro (nsp3 1564–1878). Kind of assay: biochemical. The note with it: read-out: % of control remaining. The arrangement: FRET-quenched peptide (Pro3) cleavage by PLpro, 10 min pre-incubation, slope over 20 min, normalised to no-compound control. The source holds these as a separate data set.

Counter-ions that a name gives are not always drawn. Like-named read-outs stand apart in the source and are kept apart here.

Regarding `CC1(C)CC(=O)c2c(C(F)(F)F)nn(-c3ccc(C(N)=O)c(N[C@H]4CC[C@H](OC(=O)CN)CC4)c3)c2C1` [PF-04929113 (SNX-5422)], the remaining activity at 3.75 µM in assay [1] (Well no.=4637, high concentration screen) was 105%. Moreover, the remaining activity at 1.25 µM in assay [2] (Well no.=4637, low concentration screen) amounted to 101%.

Take `Cc1ccc(-c2c(-c3nn(C)c4ncnc(N5CC[C@H](N6CCCCC6)C5)c34)cnn2C)cc1` [PF-4981517]: the remaining activity at 3.75 µM in assay [1] (Well no.=4875, high concentration screen) came out at 93.8%. Also, the remaining activity at 1.25 µM in assay [2] (Well no.=4875, low concentration screen) worked out at 99.5%.

With `Cc1cnc(-c2cc(N3CCN(C(=O)CCS(C)(=O)=O)CC3)ncc2Cl)c(C)c1` [PF-5274857 hydrochloride], the remaining activity at 3.75 µM in assay [1] (Well no.=5701, high concentration screen) amounted to 103%. The remaining activity at 1.25 µM in assay [2] (Well no.=5701, low concentration screen) is 102%.

As to `Cc1cnc(-c2cc(N3CCN(C(=O)CCS(C)(=O)=O)CC3)ncc2Cl)c(C)c1` [PF-5274857], the remaining activity at 3.75 µM in assay [1] (Well no.=4739, high concentration screen) came to 102%. Moreover, in assay [2] (Well no.=4739, low concentration screen), the remaining activity at 1.25 µM was determined as 99.5%.

Consider `O=C1CC(c2c[nH]c3ccc(F)cc23)C(=O)N1` (stereo not drawn) [PF-06840003], for which the remaining activity at 3.75 µM in assay [1] (Well no.=8215, high concentration screen) turned out to be 101%. Also, the remaining activity at 1.25 µM in assay [2] (Well no.=8215, low concentration screen) worked out at 104%.

`COc1ccccc1S(=O)(=O)Nc1ccc2c(c1)CN(C)C(=O)N2` [PFI-1]: in assay [1] (Well no.=4844, high concentration screen), the remaining activity at 3.75 µM came out at 88.7%. The remaining activity at 1.25 µM in assay [2] (Well no.=4844, low concentration screen) is 97%.

Turning to `CNC(=O)c1ccc(C)c(-n2c(C)cc(OCc3ccc(F)cc3F)c(Br)c2=O)c1` [PH-797804], the remaining activity at 3.75 µM in assay [1] (Well no.=4695, high concentration screen) was 104%. Further, the remaining activity at 1.25 µM in assay [2] (Well no.=4695, low concentration screen) was 104%.

For the molecule `Cc1[nH]c(/C=C2\C(=O)Nc3ccc(S(=O)(=O)Cc4c(Cl)cccc4Cl)cc32)c(C)c1C(=O)N1CCC[C@@H]1CN1CCCC1` [PHA 665752 - (2R)-1-[[5-[(Z)-[5-[[(2,6-Dichlorophenyl)methyl]sulfonyl]-1,2-dihydro-2-oxo-3H-indol-3-ylidene]methyl]-2,4-dimethyl-1H-pyrrol-3-yl]carbonyl]-2-(1-pyrrolidinylmethyl)pyrrolidine], the remaining activity at 3.75 µM in assay [1] (Well no.=2590, high concentration screen) was 98.3%. The remaining activity at 1.25 µM in assay [2] (Well no.=2590, low concentration screen) was found to be 96.2%.

As to `CCc1cccc(CC)c1NC(=O)N1Cc2[nH]nc(NC(=O)c3ccc(N4CCN(C)CC4)cc3)c2C1` [PHA-680632], the remaining activity at 3.75 µM in assay [1] (Well no.=4865, high concentration screen) is 101%. For the same molecule, in assay [2] (Well no.=4865, low concentration screen), the remaining activity at 1.25 µM was 97.9%.

`CC(C)CC(=O)Nc1n[nH]c2c1CN(C(=O)C1CCN(C)CC1)C2(C)C` [PHA-793887]: in assay [1] (Well no.=4907, high concentration screen), the remaining activity at 3.75 µM turned out to be 93.7%. Also, in assay [2] (Well no.=4907, low concentration screen), the remaining activity at 1.25 µM stood at 94.3%.

As to `O=C(Nc1ccccc1)[C@@]12C[C@@H]1/C(=N\O)c1ccccc1O2` [PHCCC], in assay [1] (Well no.=8571, high concentration screen), the remaining activity at 3.75 µM came out at 105%. The remaining activity at 1.25 µM in assay [2] (Well no.=8571, low concentration screen) was 107%.

Consider `CCCCCCCCCCCCc1ccc(S(=O)(=O)Nc2nncs2)cc1` [PHT-427], for which the remaining activity at 3.75 µM in assay [1] (Well no.=4959, high concentration screen) came to 98.1%. The remaining activity at 1.25 µM in assay [2] (Well no.=4959, low concentration screen) amounted to 96.5%.

As to `Oc1ccc(-c2c(-c3ccccc3)nn3c(C(F)(F)F)cc(C(F)(F)F)nc23)cc1` [PHTPP], the remaining activity at 3.75 µM in assay [1] is 101%. Also, the remaining activity at 1.25 µM in assay [2] is 103%.

With `COc1cc(Nc2nc3ccccc3nc2NS(=O)(=O)c2ccc(NC(=O)c3ccc(C)c(OC)c3)cc2)cc(OC)c1` [PI3K-IN-1], the remaining activity at 3.75 µM in assay [1] (Well no.=8600, high concentration screen) is 97.8%. In assay [2] (Well no.=8600, low concentration screen), the remaining activity at 1.25 µM stood at 102%.

Turning to `O=C1NC(=O)/C(=C/c2ccc3nccnc3c2)S1` [PI 3-Kg Inhibitor], the remaining activity at 3.75 µM in assay [1] (Well no.=2515, high concentration screen) is 106%. The remaining activity at 1.25 µM in assay [2] (Well no.=2515, low concentration screen) came out at 99.9%.

For `Nc1ccc(-c2cccc3c(=O)cc(N4CCOCC4)oc23)cc1` [PI 828 - 2-(4-Morpholinyl)-8-(4-aminopheny)l-4H-1-benzopyran-4-one], in assay [1] (Well no.=2628, high concentration screen), the remaining activity at 3.75 µM was found to be 102%. In addition, in assay [2] (Well no.=2628, low concentration screen), the remaining activity at 1.25 µM came to 98.1%.

`Oc1cccc(-c2nc(N3CCOCC3)c3oc4ncccc4c3n2)c1` [PI-103]: in assay [1] (Well no.=2367, high concentration screen), the remaining activity at 3.75 µM turned out to be 100%. Also, the remaining activity at 1.25 µM in assay [2] (Well no.=2367, low concentration screen) amounted to 100%.

Consider `CCCc1ccc(OCC(=O)N(Cc2nc(-c3cccnc3)no2)C(C)C)cc1` [PI-1840], for which, in assay [1] (Well no.=8718, high concentration screen), the remaining activity at 3.75 µM stood at 98.4%. The remaining activity at 1.25 µM in assay [2] (Well no.=8718, low concentration screen) was 94.8%.

Take `Cc1ccc([N+](=O)[O-])cc1S(=O)(=O)N(C)/N=C/c1cnc2ccc(Br)cn12` [PIK 75]: in assay [1] (Well no.=2993, high concentration screen), the remaining activity at 3.75 µM came out at 96.1%. The remaining activity at 1.25 µM in assay [2] (Well no.=2993, low concentration screen) is 96.4%.

Turning to `COc1ccc2c3n(c(=NC(=O)c4cccnc4)nc2c1OC)CCN3` [PIK-90], in assay [1] (Well no.=2747, high concentration screen), the remaining activity at 3.75 µM was 95%. Besides, in assay [2] (Well no.=2747, low concentration screen), the remaining activity at 1.25 µM turned out to be 91.2%.

Consider `CC(=O)Nc1nc(C)c(-c2ccc(Cl)c(S(=O)(=O)NCCO)c2)s1` [PIK-93], for which, in assay [1] (Well no.=4911, high concentration screen), the remaining activity at 3.75 µM was determined as 96.9%. Besides, the remaining activity at 1.25 µM in assay [2] (Well no.=4911, low concentration screen) came out at 95.7%.

Regarding `CCCOc1ccc(/C=C2/SC(=O)NC2=O)cc1` [PIM1/2 Kinase Inhibitor VI], the remaining activity at 3.75 µM in assay [1] (Well no.=2571, high concentration screen) came out at 97%. Besides, the remaining activity at 1.25 µM in assay [2] (Well no.=2571, low concentration screen) was found to be 97.6%.

With `CN(C)CC(=O)Nc1ccc2[nH]c(=O)c3ccccc3c2c1` [PJ-34], in assay [1] (Well no.=906, high concentration screen), the remaining activity at 3.75 µM was determined as 95.6%. In addition, the remaining activity at 1.25 µM in assay [2] (Well no.=906, low concentration screen) was found to be 99.3%.

As for `Cc1nnc(NC(=O)c2nc(S(=O)(=O)Cc3ccc(F)cc3)ncc2Cl)s1` [PK11007], the remaining activity at 3.75 µM in assay [1] (Well no.=6834, high concentration screen) was 87.8%. Further, the remaining activity at 1.25 µM in assay [2] (Well no.=6834, low concentration screen) came out at 86.8%.

In the case of `CCC(C)N(C)C(=O)c1cc2ccccc2c(-c2ccccc2Cl)n1` (stereo not drawn) [PK 11195], the remaining activity at 3.75 µM in assay [1] (Well no.=185, high concentration screen) worked out at 98.2%. For the same molecule, the remaining activity at 1.25 µM in assay [2] (Well no.=185, low concentration screen) was 99.9%.

As to `C[C@@H](Nc1ncnc2[nH]c(-c3ccc(O)cc3)cc12)c1ccccc1` [PKI-166], the remaining activity at 3.75 µM in assay [1] (Well no.=6037, high concentration screen) was determined as 78.3%. In assay [2] (Well no.=6037, low concentration screen), the remaining activity at 1.25 µM is 94.4%.

Regarding `CCn1nnc2c(N3CCOCC3)nc(-c3ccc(NC(=O)Nc4ccc(C(=O)N5CCN(C)CC5)cc4)cc3)nc21` [PKI-402], the remaining activity at 3.75 µM in assay [1] (Well no.=4699, high concentration screen) came to 101%. For the same molecule, the remaining activity at 1.25 µM in assay [2] (Well no.=4699, low concentration screen) was 105%.

`O=C1Nc2ccc(Cl)cc2/C1=C/c1cc(Cl)c(O)c(Cl)c1` [PKR Inhibitor, Negative Control]: the remaining activity at 3.75 µM in assay [1] (Well no.=2513, high concentration screen) was found to be 99%. Besides, the remaining activity at 1.25 µM in assay [2] (Well no.=2513, low concentration screen) worked out at 96.5%.

As for `O=C1Nc2ccc3ncsc3c2/C1=C/c1cnc[nH]1` [PKR Inhibitor], the remaining activity at 3.75 µM in assay [1] (Well no.=2511, high concentration screen) was 103%. Also, the remaining activity at 1.25 µM in assay [2] (Well no.=2511, low concentration screen) came out at 103%.

`CCCS(=O)(=O)Nc1ccc(F)c(C(=O)c2c[nH]c3ncc(Cl)cc23)c1F` [PLX4720]: in assay [1] (Well no.=2795, high concentration screen), the remaining activity at 3.75 µM is 99.9%. Also, the remaining activity at 1.25 µM in assay [2] (Well no.=2795, low concentration screen) came to 97.5%.

With `O=C(O)CCC(CP(=O)(O)O)C(=O)O` (stereo not drawn) [PMPA tetrasodium], the remaining activity at 3.75 µM in assay [1] (Well no.=1219, high concentration screen) came out at 103%. For the same molecule, in assay [2] (Well no.=1219, low concentration screen), the remaining activity at 1.25 µM worked out at 105%.

Take `Nc1cc(Nc2ccc(S(N)(=O)=O)cc2)ncn1` [PNU112455A]: the remaining activity at 3.75 µM in assay [1] (Well no.=5446, high concentration screen) worked out at 102%. The remaining activity at 1.25 µM in assay [2] (Well no.=5446, low concentration screen) was found to be 100%.

For `COc1cc(OC)c(NC(=O)Nc2cc(C)on2)cc1Cl` [PNU-120596], in assay [1] (Well no.=4964, high concentration screen), the remaining activity at 3.75 µM amounted to 92.3%. For the same molecule, the remaining activity at 1.25 µM in assay [2] (Well no.=4964, low concentration screen) came out at 98.4%.
